From PubChem BioAssay (NCI)
Several values for one entry are separate records, joined by “and”; a condition that tells them apart may be missing. Equal entries are not always repeated.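 96-well plates; 48 h exposure; 5 concentrations. Endpoints by linear interpolation between flanking doses. Not reached: highest tested concentration assigned. GI50: concentration for 50% inhibition of growth. TGI: concentration producing complete growth inhibition.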

Tests used:
Assay in all cases: NCI tumour cell line growth inhibition, 48 h
HOP-62 NSCLC = test system: HOP-62 NSCLC
HCT-116 colon = test system: HCT-116 colon
SR leukemia = test system: SR leukemia
SNB-19 CNS = test system: SNB-19 CNS
M14 melanoma = test system: M14 melanoma
UO-31 renal = test system: UO-31 renal
EKVX NSCLC = test system: EKVX NSCLC
COLO 205 colon = test system: COLO 205 colon
MOLT-4 leukemia = test system: MOLT-4 leukemia
HCT-15 colon = test system: HCT-15 colon

SMILES	GI50 (HOP-62 NSCLC)	TGI (HOP-62 NSCLC)	GI50 (HCT-116 colon)	TGI (HCT-116 colon)	GI50 (SR leukemia) [µM]	TGI (SR leukemia)	GI50 (SNB-19 CNS)	TGI (SNB-19 CNS)	GI50 (M14 melanoma)	TGI (M14 melanoma)	GI50 (UO-31 renal)	TGI (UO-31 renal)	GI50 (EKVX NSCLC)	TGI (EKVX NSCLC)	GI50 (COLO 205 colon)	TGI (COLO 205 colon)	GI50 (MOLT-4 leukemia)	TGI (MOLT-4 leukemia)	GI50 (HCT-15 colon)	TGI (HCT-15 colon)
C=CC(=O)N(C)[C@H]1C[C@H]2OC(C)(C1OC)n1c3ccccc3c3c4c(c5c6ccccc6n2c5c31)C(=O)NC4 (some centres not stated)	0.0193 µM	0.176 µM	0.0681 µM	0.672 µM	0.0983	0.776 µM	0.17 µM	1.71 µM	0.115 µM	1.74 µM	0.018 µM	0.0854 µM	0.085 µM	> 50 µM	0.0831 µM	0.253 µM	0.0773 µM	0.899 µM	0.099 µM	0.644 µM
C[C@]12CC[C@H]3[C@@H](CCC4=CC(=O)CC[C@@H]43)[C@@H]1CC[C@@H]2OC(=O)CCc1ccccc1	20.5 µM	39.6 µM	19.3 µM	43.9 µM	11.2	> 53.4 µM	18.4 µM	37.5 µM	21.2 µM	46.4 µM	18.6 µM	39.2 µM	2.23 µM	28.7 µM	16.3 µM	40.1 µM	17.5 µM	49.6 µM	24.6 µM	> 89.7 µM
Cc1ccc(NC(=O)/C=C/c2ccccc2)c(C(N)=O)c1	11.1 µM	> 100 µM	2.96 µM	> 76.8 µM	0.881	20.1 µM	5.81 µM	> 100 µM	2.12 µM	> 100 µM	10.3 µM	> 60 µM	4.78 µM	> 100 µM	1.68 µM	5.93 µM	3.34 µM	> 74.1 µM	2.43 µM	> 100 µM
COC1CC(OS(=O)(=O)c2ccc(C)cc2)C(OC(=O)c2ccccc2)C(C)O1 (configuration not stated)	> 100 µM	> 100 µM	–	> 10 µM	–	> 10 µM	> 100 µM	> 100 µM	> 100 µM	> 100 µM	> 100 µM	> 100 µM	> 100 µM	> 100 µM	> 100 µM	> 100 µM	> 100 µM	> 100 µM	> 100 µM	> 100 µM
COC(=O)Cn1c2c(c3c(O)cccc31)C(=O)c1ccccc1-2	> 100 µM	> 100 µM	> 100 µM	> 100 µM	28.8	> 100 µM	> 100 µM	> 100 µM	> 100 µM	> 100 µM	> 100 µM	> 100 µM	> 100 µM	> 100 µM	> 100 µM	> 100 µM	> 100 µM	> 100 µM	> 100 µM	> 100 µM
CCCn1c(C)nc2c1C(=O)c1ccccc1C2=O	41.3 µM	> 100 µM	23.7 µM	65.9 µM	15.1	79.4 µM	53.3 µM	> 100 µM	40 µM	> 100 µM	9.06 µM	60.8 µM	18.9 µM	70.8 µM	37.6 µM	> 100 µM	19 µM	> 100 µM	14.2 µM	> 100 µM
COC(=O)C(Cc1ccccc1)NC(=O)NC(=O)NC(=O)CI (configuration not stated)	18 µM	33.7 µM	3.27 µM	11.1 µM	1.2	3.67 µM	17.6 µM	36.4 µM	2.51 µM	7.45 µM	1.83 µM	3.44 µM	11.9 µM	25.3 µM	1.83 µM	3.56 µM	2 µM	5.21 µM	1.66 µM	3.13 µM
O=C1C(=O)c2c(nc3ccc(Cl)cn23)-c2ccccc21	0.666 µM	1.66 µM	0.311 µM	3.73 µM	0.348	1.44 µM	1.32 µM	3 µM	1.3 µM	3.05 µM	0.306 µM	3.47 µM	1.65 µM	3.38 µM	1.79 µM	3.54 µM	0.308 µM	–	1.08 µM	2.73 µM
C[C@]12CCC3[C@@H](CC[C@@H]4c5nonc5CC[C@]34C)C1CCC(=O)N2 (some centres not stated)	–	> 100 µM	–	> 100 µM	> 100	> 100 µM	–	> 100 µM	–	> 100 µM	–	> 100 µM	–	> 100 µM	–	> 100 µM	> 59.7 µM	> 100 µM	–	> 100 µM
C=CC(=O)Nc1cccc(C)c1Nc1cc(-c2cccnc2Cc2c(C)c(OC)cc(OC)c2C)ncn1	19 µM	75.7 µM	16.6 µM	44.6 µM	4.41	> 100 µM	7.04 µM	43.1 µM	22.5 µM	97.5 µM	18.4 µM	> 100 µM	28.8 µM	> 100 µM	13.1 µM	> 100 µM	3.6 µM	> 100 µM	14.4 µM	47.2 µM
COc1ccc2cc(-c3ccoc(=O)c3-c3cc(OC)c(OC)c(OC)c3)ccc2c1	0.27 µM	> 100 µM	0.044 µM	–	0.0301	–	0.125 µM	> 100 µM	0.0681 µM	> 100 µM	0.1 µM	> 100 µM	0.566 µM	> 100 µM	0.0449 µM	0.212 µM	0.161 µM	> 51.1 µM	0.059 µM	> 100 µM
O=S(=O)(NCCNC/C=C/c1ccc(Br)cc1)c1cccc2cnccc12	7.49 µM and 8.6 µM	21.7 µM and 22.2 µM	7.6 µM and 11.2 µM	22 µM and 24 µM	13.6	> 40.9 µM and 34.6 µM	13.1 µM and 17.7 µM	27 µM and 34.1 µM	12.8 µM and 15.3 µM	26.4 µM and 30.9 µM	4.8 µM and 5.17 µM	18.4 µM and 20.2 µM	5.25 µM and 6.38 µM	22.9 µM and 20.5 µM	2.23 µM and 10.7 µM	4.9 µM and 24.6 µM	> 20.4 µM and 7.23 µM	> 45 µM and 27.7 µM	11.2 µM and 11.4 µM	27.3 µM and 25.5 µM
N#Cc1c(N/N=C/c2c(Cl)cccc2Cl)nc(N)nc1N1CCOCC1	13.9 µM	> 100 µM	4.72 µM	31.3 µM	1.1	3.18 µM	34.5 µM	> 100 µM	6.79 µM	38.7 µM	14.5 µM	86.4 µM	54.1 µM	> 100 µM	14.9 µM	> 100 µM	4.08 µM	40.6 µM	4.52 µM	57.4 µM
COc1ccc(C(OCC2OC(n3ccc(NC(=O)c4ccccc4)nc3=O)C(O)C2O)(c2ccccc2)c2ccccc2)cc1 (configuration not stated)	–	4 µM	–	3.23 µM	–	4.96 µM	–	9 µM	–	3.62 µM	–	11.4 µM	–	6.1 µM	–	3.7 µM	–	4.17 µM	–	3.87 µM
CN1CCN(Cc2ccc(NC(=O)c3cncc(C#Cc4cnc(N)c5ccncc45)c3)cc2C(F)(F)F)CC1	1.03 µM	> 16.6 µM	0.442 µM	3.04 µM	0.567	> 24.5 µM	3.23 µM	9.62 µM	0.141 µM	0.547 µM	0.918 µM	2.49 µM	1.44 µM	> 16.8 µM	0.181 µM	1.95 µM	0.328 µM	8.68 µM	1.42 µM	5.84 µM
